Measured values taken from US20220064138A1, “MACROLIDE BREFELDIN A ESTER DERIVATIVES AND USE THEREOF” (OCEAN UNIVERSITY OF CHINA, priority 2019, published 2022).
Values after ≈ are worked out from the molar mass of the structure shown.

Tests used:
[1] = system: Human cervical cancer Hela cells; test: Cell proliferation assay (CCK-8); type: cell-based; conditions: 72 h
From the text: (§1) CCK-8 method: The CCK-8 method is a highly sensitive, non-radioactive colorimetric assay for the determination of the number of viable cells in cell proliferation or cytotoxicity assays. The orange formazan dye produced by the bioreduction of CCK-8 by intracellular dehydrogenase is soluble in the cell culture medium, and the amount of formazan dye produced is proportional to the number of living cells. The kit used in this method is the tetrazolium salt-WST-8 (2-(2-methoxy-4-nitrophenyl)-3-(4-nitrophenyl)-5-(2,4-disulfophenyl)-2H-tetrazolium monosodium salt) developed by Dojindo Chemical Research Institute (Dojindo), which is capable of being reduced to a water-soluble formazan dye in the presence of the electronic carrier 1-Methoxy PMS.
(§2) Human cervical cancer Hela cells, pancreatic cancer PANC-1 cells, esophageal cancer Eca-109 cells, human leukemia K562 cells, human lung cancer A549 cells, human liver cancer HepG2 cells, human gastric cancer MKN-45 cells, human breast cancer MCF7 cells were cultured in DMEM medium containing 10% FBS (fetal bovine serum), 100 U/mL penicillin and 100 μg/ml streptomycin. Hepatocellular carcinoma cells Bel-7402 were cultured in RPMI-1640 medium containing 10% FBS (fetal bovine serum), 100 U/ml penicillin and 100 μg/ml streptomycin. All cells were placed in a cell culture incubator at 37° C. with 5% CO2. Cells fluid was changed every 3-5 days, and after 80% cell fusion, trypsin digestion and passaging were performed to keep the cells in good logarithmic growth phase.
(§3) All the samples to be tested were dissolved in DMSO.
(§4) Cells in logarithmic growth phase were inoculated in 96-well plates with 5000 cells/well respectively, and after 24 h of incubation, samples were added (final concentrations as shown in the table), and biplicate wells were set up for each sample. The amount of solvent of DMSO was not higher than 2‰. After 72 h, 10 μL of CCK-8 solution was added to each well and incubated for 1.5˜3 h at 37° C. The OD value at 450 nm was measured on an plate reader.
(§5) Inhibition rate (%)=(1−[(OD450 dosed well−OD450 blank well)/(OD450 control well−OD450 blank well)])×100%
(§6) The fitted IC50 values were calculated using the log (inhibitor) vs. response-Variable slop analysis method in GraphPad Prism software.

[2] = system: human leukemia K562 cells; test: Cell proliferation assay (CCK-8); type: cell-based; conditions: K562, 72 h
From the text: as §1, §2, §3, §4, §5, §6

[3] = system: esophageal cancer Eca-109 cells; test: Cell proliferation assay (CCK-8); type: cell-based; conditions: Homo sapiens, Eca-109, 72 h
From the text: as §1, §2, §3, §4, §5, §6

[4] = system: human lung cancer A549 cells; test: Cell proliferation assay (CCK-8); type: cell-based; conditions: A549, 72 h
From the text: as §1, §2, §3, §4, §5, §6

[5] = system: human gastric cancer MKN-45 cells; test: Cell proliferation assay (CCK-8); type: cell-based; conditions: MKN-45, 72 h
From the text: as §1, §2, §3, §4, §5, §6

[6] = system: human breast cancer MCF7 cells; test: Cell proliferation assay (CCK-8); type: cell-based; conditions: MCF7, 72 h
From the text: as §1, §2, §3, §4, §5, §6

[7] = system: human liver cancer HepG2 cells; test: Cell proliferation assay (CCK-8); type: cell-based; conditions: HepG2, 72 h
From the text: as §1, §2, §3, §4, §5, §6

[8] = system: pancreatic cancer PANC-1 cells; test: Cell proliferation assay (CCK-8); type: cell-based; conditions: Homo sapiens, PANC-1, 72 h
From the text: as §1, §2, §3, §4, §5, §6

[9] = system: Kunming breed mice; test: Toxicity test after intraperitoneal administration to mice; type: in vivo; conditions: 14 d; for Deaths: high and low doses (BFA effective amount conversion), ip., mice; for Mental condition of the animals after administration / Results of anatomy: abnormality in organs: male, Kunming, mouse, in vivo, ip
Method: Objective: Observation of toxic effects of compounds after intraperitoneally administration (ip.) to mice
1) Agents: Compounds disclosed herein were formulated to a suitable concentration.
2) Animals: Kunming breed mice, weight 18-22 g, male. Provided by Jinan Pengyue Laboratory Animal Breeding Co., Ltd. Animal license number: SCXK (Shandong 20140007)
Method: Kunming breed mice, were randomly grouped by weight, 6 mice per group, namely normal control group, BFA high and low dose groups (100 mg/kg and 50 mg/kg, respectively), and high and low dose groups of some compounds disclosed herein (BFA effective amount conversion). […] After 14 d of continuous administration, all the animals were weighed, and the animals were executed to observe whether there were any abnormalities in the organs.

[10] = Solubility test (shaking 24 h at 37° C., HPLC)

SMILES | IC50 [1] [nM] | IC50 [2] [nM] | IC50 [3] [nM] | IC50 [4] [nM] | IC50 [5] [nM] | IC50 [6] [nM] | IC50 [7] [nM] | IC50 [8] [nM] | Deaths [9] | Mental condition of the animals after administration [9] | Results of anatomy: abnormality in organs [9] | solubility at 24 h ([10]; 5% DMSO + 95% H2O) [mg/mL] | solubility at 24 h ([10]; acetone) [mg/mL] | solubility at 24 h ([10]; methanol) [mg/mL]
C[C@H]1CCC/C=C/[C@@H]2C[C@H](OC(=O)/C=C/c3cccnc3)C[C@H]2[C@H](OC(=O)/C=C/c2cccnc2)/C=C/C(=O)O1 [Compound 16c] | 1000 to 10000 | 100 to 1000 | 1000 to 10000 | 100 to 1000 | 1000 to 10000 | 1000 to 10000 | 100 to 1000 | 100 to 1000 | no deaths | good mental condition | no significant abnormality in all organs | – | – | –
C[C@H]1CCC/C=C/[C@@H]2C[C@H](OC(=O)/C=C/c3cccc(F)c3)C[C@H]2[C@H](OC(=O)/C=C/c2cccc(F)c2)/C=C/C(=O)O1 [Compound 1c, 4,7-O-bis(3-fluorocinnamic acid)acyl BFA] | 1000 to 10000 | 100 to 1000 | 1000 to 10000 | 1000 to 10000 | 100 to 1000 | 1000 to 10000 | 1000 to 10000 | 1000 to 10000 | no deaths | good mental condition | no significant abnormality in all organs | 0.2 ± 0.91 | 12.1 ± 0.91 (≈ 21.1 mM) | 12.2 ± 1.59 (≈ 21.2 mM)
C[C@H]1CCC/C=C/[C@@H]2C[C@H](OC(=O)/C=C/c3cccc(F)c3)C[C@H]2[C@H](O)/C=C/C(=O)O1 [Compound 1a, 7-O-(3-fluorocinnamic acid)acyl BFA] | 1000 to 10000 | 100 to 1000 | 1000 to 10000 | 100 to 1000 | 100 to 1000 | 100 to 1000 | 100 to 1000 | 100 to 1000 | no deaths | good mental condition | no significant abnormality in all organs | 0.33 ± 0.13 | 21.9 ± 1.53 (≈ 51.1 mM) | 21.3 ± 1.52 (≈ 49.8 mM)
C[C@H]1CCC/C=C/[C@@H]2C[C@H](O)C[C@H]2[C@H](OC(=O)/C=C/c2cccc(F)c2)/C=C/C(=O)O1 [Compound 1b, 4-O-(3-fluorocinnamic acid)acyl BFA] | 100 to 1000 | 100 to 1000 | 100 to 1000 | 100 to 1000 | 100 to 1000 | 100 to 1000 | 100 to 1000 | 100 to 1000 | no deaths | good mental condition | no significant abnormality in all organs | 0.32 ± 0.05 | 21 ± 1.42 (≈ 49.1 mM) | 21.1 ± 1.32 (≈ 49.3 mM)
C[C@H]1CCC/C=C/[C@@H]2C[C@H](O)C[C@H]2[C@H](OC(=O)/C=C/c2cccnc2)/C=C/C(=O)O1 [Compound 16b] | 100 to 1000 | 100 to 1000 | 100 to 1000 | 100 to 1000 | 100 to 1000 | 100 to 1000 | < 100 | < 100 | no deaths | good mental condition | no significant abnormality in all organs | – | – | –
C[C@H]1CCC/C=C/[C@@H]2C[C@H](O)C[C@H]2[C@H](OC(=O)/C=C/c2ccc(N(C)C)cc2)/C=C/C(=O)O1 [Compound 10b, 4-O-(4-dimethylaminocinnamic acid)acyl BFA] | 100 to 1000 | 100 to 1000 | 1000 to 10000 | 100 to 1000 | 100 to 1000 | 100 to 1000 | 100 to 1000 | 100 to 1000 | no deaths | good mental condition | no significant abnormality in all organs | 0.72 ± 0.13 | 23.2 ± 1.32 (≈ 51.1 mM) | 24.2 ± 1.22 (≈ 53.3 mM)
C[C@H]1CCC/C=C/[C@@H]2C[C@H](OC(=O)/C=C/c3ccc(N(C)C)cc3)C[C@H]2[C@H](OC(=O)/C=C/c2ccc(N(C)C)cc2)/C=C/C(=O)O1 [Compound 10c, 4,7-O-bis(4-dimethylaminocinnamic acid)acyl BFA] | 1000 to 10000 | 100 to 1000 | 1000 to 10000 | 100 to 1000 | 100 to 1000 | 1000 to 10000 | 1000 to 10000 | 1000 to 10000 | no deaths | good mental condition | no significant abnormality in all organs | 0.44 ± 0.08 | 12.5 ± 0.92 (≈ 20 mM) | 13.3 ± 0.91 (≈ 21.3 mM)
C[C@H]1CCC/C=C/[C@@H]2C[C@H](OC(=O)/C=C/c3ccc(C(F)(F)F)cc3)C[C@H]2[C@H](O)/C=C/C(=O)O1 [Compound 13a, 7-O-(4-trifluoromethylcinnamic acid)acyl BFA] | 100 to 1000 | 100 to 1000 | 100 to 1000 | 100 to 1000 | 100 to 1000 | 100 to 1000 | 100 to 1000 | 100 to 1000 | – | – | – | – | – | –
COc1cc(/C=C/C(=O)O[C@@H]2C[C@@H]3[C@H](/C=C/CCC[C@H](C)OC(=O)/C=C/[C@H]3OC(=O)/C=C/c3cc(OC)c(OC)c(OC)c3)C2)cc(OC)c1OC [Compound 11c, 4,7-O-bis(3,4,5-trimethoxycinnamic acid)acyl BFA] | 1000 to 10000 | 100 to 1000 | 1000 to 10000 | 100 to 1000 | 1000 to 10000 | 1000 to 10000 | 1000 to 10000 | 1000 to 10000 | – | – | – | – | – | –
C[C@H]1CCC/C=C/[C@@H]2C[C@H](O)C[C@H]2[C@H](OC(=O)/C=C/c2cccc(Cl)c2)/C=C/C(=O)O1 [Compound 5b, 4-O-(3-chlorocinnamic acid)acyl BFA] | 100 to 1000 | 100 to 1000 | 100 to 1000 | 100 to 1000 | 100 to 1000 | 100 to 1000 | 100 to 1000 | 100 to 1000 | – | – | – | – | – | –
C[C@H]1CCC/C=C/[C@@H]2C[C@H](O)C[C@H]2[C@H](OC(=O)/C=C/c2ccc(F)cc2)/C=C/C(=O)O1 [Compound 3b, 4-O-(4-fluorocinnamic acid)acyl BFA] | 100 to 1000 | 100 to 1000 | 1000 to 10000 | 100 to 1000 | 100 to 1000 | 100 to 1000 | 100 to 1000 | 100 to 1000 | – | – | – | – | – | –
Cc1ccc(/C=C/C(=O)O[C@@H]2/C=C/C(=O)O[C@@H](C)CCC/C=C/[C@@H]3C[C@H](O)C[C@H]32)cc1 [Compound 7b, 4-O-(4-methylcinnamic acid)acyl BFA] | 1000 to 10000 | 1000 to 10000 | 100 to 1000 | 100 to 1000 | 100 to 1000 | 100 to 1000 | 100 to 1000 | 100 to 1000 | – | – | – | – | – | –
C[C@H]1CCC/C=C/[C@@H]2C[C@H](OC(=O)/C=C/c3ccc4c(c3)OCO4)C[C@H]2C(OC(=O)/C=C/c2ccc3c(c2)OCO3)/C=C/C(=O)O1 (stereo partly shown) [Compound 9c, 4,7-O-bis((E)-3-(benzo[d][1,3]dioxa-5-yl)acrylic acid)acyl BFA] | 1000 to 10000 | 100 to 1000 | 1000 to 10000 | 1000 to 10000 | 100 to 1000 | 1000 to 10000 | 1000 to 10000 | 1000 to 10000 | – | – | – | – | – | –
C[C@H]1CCC/C=C/[C@@H]2C[C@H](O)C[C@H]2[C@H](OC(=O)/C=C/c2ccncc2)/C=C/C(=O)O1 [Compound 14b] | 100 to 1000 | 100 to 1000 | 1000 to 10000 | 100 to 1000 | 100 to 1000 | 100 to 1000 | < 100 | < 100 | – | – | – | – | – | –
